These results are taken from US20250312433A1, “Process for Producing of Vaccine Formulations With Preservatives” (priority 2022, published 2025).

As a reminder, the solubility is how much of the substance goes into solution per volume. Low values mean a poorly soluble substance, high ones a readily soluble substance.

Data set [1] is described as follows: 2-PE concentration / solubility in Succinate Buffered Saline by RP-HPLC. In kind it is physicochemical. Particulars: for Measured 2-PE concentration: RP-HPLC. On the procedure: (§1) The objective of this study was to evaluate the dissolution time and solubility of 2-phenoxyethanol (2-PE). 2-PE dissolution and concentration were evaluated at the following concentrations in Succinate Buffered Saline (SBS) (5 mM succinate, 150 mM NaCl, pH 5.8); 11 g/L, 16.5 g/L, and 20 g/L.
(§2) Appropriate amount of 2-PE was weighed out in 400 ml beaker and appropriate amount of succinate buffered saline was added. Agitation speed was 300 rpm and solution temperature about 20° C. The time for complete dissolution based on visual observation was recorded. 2-PE concentration was measured by RP-HPLC.

Data set [2] is described as follows: Dissolution time of 2-PE in Succinate Buffered Saline (visual observation). The format is physicochemical. The note with it: 300 rpm, about 20° C.; for 2-PE bulk dissolution Time: all dissolved besides up to approximately 5 small particles. As for the experimental part: as §1, §2

For `OCCOc1ccccc1` [2-PE, 2-phenoxyethanol], the “measured 2-PE concentration below the target concentration” value in data set [1] (all concentrations (11, 16.5, 20 mg/mL) in SBS) was “approximately 5%”. In data set [1] (aqueous buffer, thermodynamic from solid, succinate-buffered saline (pH 5.8) at 20° C.), this compound had a solubility of at least 19.1 mg/mL. Moreover, the “Percent Difference (measured − target)/target × 100” value in data set [1] (target 11.0 mg/mL in SBS) was −4.5%; in data set [1] (target 16.5 mg/mL in SBS) it was −5.5%; in data set [1] (target 20.0 mg/mL in SBS) it was −4.5%. Also, the “Measured 2-PE concentration” value in data set [1] (target 11.0 mg/mL in SBS) is 10.5 mg/mL; in data set [1] (target 16.5 mg/mL in SBS) it was 15.6 mg/mL; in data set [1] (target 20.0 mg/mL in SBS), 19.1 mg/mL. For the same compound, the “2-PE bulk dissolution Time” value in data set [2] (11 mg/mL 2-PE in SBS (5 mM succinate, 150 mM NaCl, pH 5.8)) is on record as 7 min; in data set [2] (16.5 mg/mL 2-PE in SBS), 9 min; in data set [2] (20 mg/mL 2-PE in SBS) it was 15 min. For the same compound, in data set [2] (20 mg/mL 2-PE in SBS, all small particles dissolved), the “2-PE complete dissolution time” value is on record as 35 min.
